# Assay results reported in patent publication US20170218375A1, “MORPHOLINOS, MORPHOLINO UPREGULATING, AND ASSOCIATED METHODS” (University of Utah Research Foundation, priority 2011, published 2017).
# {Dendrimer} = dendrimer conjugate (vivo-morpholino)
# Assays:
# Format in all cases: in vivo
# [1] = system: mbVEGFR2 protein; test: Western blot for mbVEGFR2 from mouse retinal protein after intravitreous injection; details: 2 μl of 100 ng/μl intravitreously on day 0 and day 3, western blot on day 4
# Excerpt: (§1) To administer morpholinos in vivo, morpholino conjugated with a dendrimer at the 3′ position (vivo-morpholino) was used for animal experiments. It should be understood that this technique is merely exemplary, and any other method of administration is considered to be within the present scope. […] Next, the protein level of mbVEGFR2 and sVEGFR2 in the retina and the ocular solution was examined by western blot. Consistent with real-time PCR results, moVEGFR2_MOe13 decreased mbVEGFR2 protein in the retina (FIG. 7C) and increased sVEGFR2 protein in the ocular solution (FIG. 7D).
# (§2) To examine whether moVEGFR2_MOe13 could work in the mouse eye, on day 0 and day 3 2 μl of 100 ng/μl moVEGFR2_MOe13 or STD_MO or DPBS were injected intravitreously. On day 4, retinal total RNA was extracted with RNeasy mini kit with DNaseI treatment. sVEGFR2 and mbVEGFR2 mRNA expression were determined by the method described above. For western blot of mbVEGFR2, on day 4, retina was dissolved in RIPA buffer. For western blot of sVEGFR2, on 4 day, intraocular solution was obtained from 6 eyes by pipette. After centrifuge, supernatant was used for further experiment. For western blot, biotin-conjugated anti-VEGFR2 (BAF644, R&D Systems, Minneapolis, Minn.) was used at 1 μg/μl.
# [2] = system: sVEGFR2 protein; test: Western blot for sVEGFR2 from mouse ocular solution after intravitreous injection; details: 2 μl of 100 ng/μl intravitreously on day 0 and day 3, western blot on day 4
# Excerpt: as §1, §2
# [3] = system: corneal transplant rejection; test: Mouse corneal transplantation model
# Method: It was also examined whether moVEGFR2_MOe13 can suppress murine corneal transplant rejection. After cornea transplantation, moVEGFR2_MOe13, STD_MO or DPBS were injected subconjuctivally. […] The arrow indicates censored data. […] Scale bar is 1 mm. FIGS. 12(c, d) Show the mean area of corneal neovascularization and lymphangiogenesis at 8 weeks respectively (n=11-17). Risk factors (p-value) were calculated by two-tail student's t-test (*: p<0.05, **p<0.01). Error bar is ±s.e.m.
# Mouse corneal transplantation has been described previously. The donor cornea was marked with 2 mm trephine, the anterior chamber was penetrated using a knife (ClearCut™ Alcon, Inc) and the cornea was cut with Vannas scissors and then placed in Balanced Salt Solution (BSS® Alcon Laboratories, Inc, Fort Worth). The recipient mouse was anesthetized by intramuscular injection with ketamine (100 mg/kg body weight) and xylazine (20 mg/kg body weight). To dilate pupil and anesthetize the cornea, 1% tropicamide ophthalmic solution and 0.5% proparacaine ophthalmic solution were used. The recipient's right cornea was marked with 1.5 mm trephine and removed by the same method as the donor cornea. Viscoelastic material (Healon, 1% sodium hyaluronate, Abbott Medical Optics, IL) was used during recipient cornea dissection. […]
substance,measurement,setting,value
"5′-cacccagggatgcctccatacCTAG-3′ (antisense CACCCAGGGATGCCTCCATACCTAG; all phosphorodiamidate morpholino (PMO), 3' {Dendrimer}) [moVEGFR2_MOe13, morpholino that targets the exon13-intron13 junction of the mouse VEGFR2 gene; in vivo conjugated with a dendrimer (vivo-morpholino)]",mbVEGFR2 protein in the retina,[1],decreased
same,sVEGFR2 protein in the ocular solution,[2],increased
same,corneal neovascularization and lymphangiogenesis at 8 weeks,"[3]; mean area, CD31 and LYVE-1 stained cornea at the endpoint (8 weeks), FIGS. 12C, D",decreased
same,graft survival,"[3]; mouse cornea transplantation, 15 ul of 40 ng/μl subconjunctivally day of transplantation and weeks 1-4, compared with DPBS and STD_MO (log rank p=0.0186 and 0.0610)",increased
